Results taken from patent US10265298B2, “Method of increasing the bioavailability of silybin” (Macau University of Science and Technology, priority 2017, dated 2019).

How the values were obtained:
in vitro = in vitro ADME, rat; conditions: male, Sprague Dawley, rat
Procedure: Sandwich-cultured rat hepatocytes (SCHs) were established according to previously described methods with minor modifications. Primary rat hepatocytes were isolated from male Sprague Dawley® (SD) rats (220-270 g) using a collagenase perfusion as described previously and plated at a density of 7.4×10^5 cells/2 ml/well onto six-well BioCoat plates. Approximately 24 hours later, hepatocytes were overlaid with 2 ml of 0.25 mg/ml BD Matrigel basement membrane matrix in Dulbecco's modified Eagle medium (DMEM) containing 1% volume by volume percentage (v/v) insulin/transferrin/selenium culture supplement, […] dexamethasone, 2 mM L-glutamine, 1% (v/v) minimum essential medium nonessential amino acids, 1% penicillin-streptomycin. Hepatocytes were cultured for 4 days to allow extensive formation of canalicular networks between cells before experimentation and the medium was changed daily.
Sandwich-cultured hepatocytes (SCHs) were pre-incubated in 2 milliliters (ml) of warm Hank's Balanced Salt Solution (HBSS) with or without Ca^2+ at 37° C. for 15 minutes; the tight junctions of the bile canaliculi open temporally after exposure to HBSS without Ca^2+. Subsequently, cells were incubated at 37° C. for 20 minutes with 1.5 ml of standard HBSS containing silybin (10 μM), or MK 571 (50 μM) as a positive control, or baicalein (25, 15.8, 5, 1.58, 0.5, 0.16 μM), or tangeretin (25, 15.8, 5, 1.58, 0.5 μM). After 20 min, cells were washed three times with ice-cold standard HBSS. The cell samples were lysed by sonication in 1 ml of water for 5 seconds with the ultrasonic cell disruption system (SONICS & […], INC., Newtown, Conn., USA). Conjugated silybin and unconjugated (free) silybin were quantified by high-performance liquid chromatography-tandem mass spectrometry (HPLC-MS/MS). Transport function was normalized to the protein content of the hepatocytes which was evaluated by bicinchoninic acid (BCA) protein assay (Pierce Chemical, Rockford, Ill.). The biliary excretion index (BEI; %) and in vitro biliary clearance (Clbiliary; ml/min/kg) were calculated by using B-CLEAR technology (Qualyst, Inc., Research Triangle Park, N.C.) based on the following equations: […]

MCD diet-induced NASH = assay: MCD diet-induced nonalcoholic steatohepatitis (NASH) mouse model; format: in vivo
Source text: Male wild-type (WT) mice C571BI/6 were fed either methionine/choline-sufficient (MCS) chow diet (Trophic Animal Feed High-tech Co., Ltd, China) or MCD diet (Trophic Animal Feed High-tech Co., Ltd, China) for 7 weeks. Animals were randomly divided into eight groups: 1) control, fed a standard control MCS diet and given vehicle (35% polyethylene glycol (PEG) 400:15% Cremophor EL:5% ethanol:45% saline); 2) rats fed a MCD diet and given vehicle; 3) rats fed the MCD diet and orally treated with silybin (300 milligrams per kilogram (mg/kg)); 4) rats fed the MCD diet and orally treated with silybin (150 mg/kg); 5) rats fed the MCD diet and orally treated with tangeretin (150 mg/kg); 6) rats fed the MCD diet and orally treated with 75 mg/kg silybin and 75 mg/kg tangeretin (SB & TG—L); 7) rats fed the MCD diet and orally treated 150 mg/kg silybin and 150 mg/kg tangeretin (SB & TG—M); 8) rats fed the MCD diet and orally treated with 300 mg/kg silybin and […]. Body weight was intermittently monitored during the diet-induction period and every two or three days during the intervention period.
At the end of 8 weeks, mice were sacrificed under ether anesthesia. The following procedures are same as the description under “2.10 Effects of silybin on acute liver damage induced by CCl4 in rats”. The cytokine levels including tumor necrosis factor alpha (TNF-α) (eBioscience Inc, San Diego, Calif., USA), interleukin-6 (IL-6) assay kit (Raybiotech, Norcross, Ga., USA) in serum of NASH model were further measured using commercially available enzyme-linked immunosorbent assay (ELISA) kits.

COc1ccc(-c2cc(=O)c3c(OC)c(OC)c(OC)c(OC)c3o2)cc1 [tangeretin]
inhibition at 20 min (in vitro): ~90%

COc1cc(C2Oc3cc([C@H]4Oc5cc(O)cc(O)c5C(=O)[C@@H]4O)ccc3OC2CO)ccc1O (stereo partly drawn) [silybin]
MCD diet-induced TC and TG increase (MCD diet-induced NASH; mice on MCD diet): clearly inhibited | body weight (MCD diet-induced NASH; mice on MCD diet): slightly increased | lipid accumulation and inflammatory infiltration in liver (H&E) (MCD diet-induced NASH; mice on MCD diet): decreased | liver/body weight ratio (MCD diet-induced NASH; mice on MCD diet): moderate decrease | MCD diet-induced elevation of ALT, AST, MDA, SOD, GSH and GSH/GSSG ratio (MCD diet-induced NASH; silybin 300 mg/kg, silybin-tangeretin treatment): suppressed | liver/body ratio (MCD diet-induced NASH; silybin by co-treatment with tangeretin, FIG. 35A): significantly decreased | body weight and liver weight (MCD diet-induced NASH; silybin by co-treatment with tangeretin, FIG. 35B, 35C): did not significantly affect | MCD diet-induced cytokines elevation (IL-1β, TNF-α, IL-6) (MCD diet-induced NASH; silybin treatment in the absence or presence of tangeretin): suppressed
